US12194294B2, “Oral drug delivery devices and methods using iontophoresis” (The Regents of the University of California, priority 2019, dated 2025)
Entries after “also recorded” stand apart in the source; their conditions may differ. Where two headings read alike, the source gives them in different places.

Legend:
non-diabetic rats = experiment: In vivo intestinal iontophoresis using insulin mucoadhesive patches: blood glucose; parameters: species or system rat
Experimental: Insulin mucoadhesive patches were prepared as described in Banerjee, et al., “Intestinal Mucoadhesive Devices for Oral Delivery of Insulin,” Bioeng. Transl. Med. 1, 338-346 (2016). […] About 110 mg of the mixture was pressed at 3-ton pressure using a hydraulic press into a patch. The patches were then cut into 5×3 mm (length×breadth) sized rectangular smaller patches. One side of the patch was completely covered with aluminum foil using minimal amount of super glue placed at one corner of the foil. Wires with a small section of their protective insulation removed were then stuck on the aluminum foil using super glue. Care was taken not to cover the entire wire placed over the foil with super glue. The exposed wire sticking on to the patches were then taped with an electrical insulating tape to prevent any loss of current in vivo through exposed wire.
Intestinal iontophoresis was carried out using a 6 V battery connected to the intestine. A potentiometer and an ammeter were used in the electrical circuit to accurately control and measure the electric current. Given that the identified safe threshold for iontophoresis is 0.5 mA/cm^2, the electrical parameters were selected in order to perform the studies using a safe current density of 0.33 mA/cm^2 (Singh, et. al., “Transdermal drug delivery by passive diffusion and iontophoresis: a review,” Med Res Rev., 13(5):569-621 (1993)). For the experiment, the rats were fasted overnight but given free access to water. Prior to the start of intestinal iontophoresis, the rats were anesthetized, a portion of abdomen prepped for surgery and an incision was made in the area to expose the intestine. Experiments were conducted using sterile instruments and following good surgical practices. […] Thereafter current (45-50 μA) was allowed to flow for 1.5 minutes followed by 3.5 minutes of recovery time for 1 h, amounting to a total 18 min of iontophoresis. After 1 h, the patches were left in place but the wires were disconnected from the battery and cut close to the inserted patches. The intestinal incisions with the patches left in place were stitched, the intestine put back into the abdomen and the muscle and skin sutured. Blood glucose was determined at the start of the study and at every 0.5 h till the end of study at 3 h. The rats were kept anesthetized until the end of experiment. Afterwards, the animals were euthanized and the intestinal sections in and around the patches were dissected for further histological examination to determine morphological changes, if any, due to iontophoresis.
Control experiments with no electric current were conducted similarly.
About 110 mg of the mixture was pressed at 3-ton pressure using a hydraulic press into a patch. The patches were then cut into 5×3 mm (length×breadth) sized rectangular smaller patches. One side of the patch was completely covered with aluminum foil using minimal amount of super glue placed at one corner of the foil. Wires with a small section of their protective insulation removed were then stuck on the aluminum foil using super glue. Care was taken not to cover the entire wire placed over the foil with super glue. The exposed wire sticking on to the patches were then taped with an electrical insulating tape to prevent any loss of current in vivo through exposed wire.
The circuit for in vivo experiments was set up as illustrated in FIG. 3. Intestinal iontophoresis was carried out using a 6 V battery connected to the intestine. A potentiometer and an ammeter were used in the electrical circuit to accurately control and measure the electric current. Given that the identified safe threshold for iontophoresis is 0.5 mA/cm2, the electrical parameters were selected in order to perform the studies using a safe current density of 0.33 mA/cm2 [8]. For the experiment, the rats were fasted overnight but given free access to water. […]

Caco-2 cells [1] = experiment: TEER measurement of tight junction integrity in Caco-2 monolayers during FITC-insulin transport study; format: cell-based, human; settings: for TEER decrease: within 15 min
Experimental: Transport experiments were carried out in triplicates and at least 3 transwells were used per trial for each group. Before the start of the experiment, the existing medium in the transwell was replaced with phenol red, FBS and P/S free DMEM in both the apical (200 μl) and basolateral side (600 μl) and the cells were incubated for 30 min. […] This was performed at 0.25, 0.5, 1, 2, 3 and 5 h. A 50 μA electric current was applied to the cells during the first hour of the study for a period of 10 min, followed by a 10 min recovery period and this was repeated another two times. At the end of 1 h (total 30 min iontophoresis), the transwell plates were kept inside an incubator at 37° C., 5% CO2 and only taken out to remove 100 μl aliquots from the basolateral side followed by replacement with same volume fresh medium at the aforementioned time periods. […] TEER was measured at every time point when aliquots were withdrawn from the transwells.

Caco-2 cells [2] = experiment: Confocal microscopy of FITC-insulin uptake by Caco-2 cells; format: cell-based, human; settings: cells exposed to electric current compared to control wells
Experimental: On the next day, the transwells were washed with HBSS and the membrane cut out and placed in glass slides. Mounting media with DAPI was added to the membranes and covered with glass slides. Confocal imaging was performed using Olympus Fluoview 1000 Spectral Confocal instrument at 60× magnification.
On the next day, the transwells were washed with HBSS and the membrane cut out and placed in glass slides. Mounting media with DAPI was added to the membranes and covered with glass slides. Confocal imaging was performed using Olympus Fluoview 1000™ Spectral Confocal instrument at 60× magnification.

Caco-2 monolayers = settings: for FITC-insulin transported across the cells: end of 5 h; for Papp of FITC-insulin across the cells: in 5 h
Experimental: (§1) Caco-2 human intestinal epithelial cells (passages #5-10) were cultured in DMEM containing 10% v/v FBS and 1% v/v P/S and seeded in 24 well plate transwells at a density of 2×10^5 cells/ml. 200 μl DMEM with cells was placed in apical side while 600 μl cell free DMEM was placed in the basolateral side. The cells were allowed to grow for a period of 18-21 days and medium replaced with fresh DMEM every other day.
(§2) To maintain sterile conditions, all in vitro experiments including circuit set up were done under aseptic conditions in a biosafety cabinet. A 6 V battery was used to supply electrical current to transwells containing Caco-2 monolayer. The higher potential of the battery was connected to the basolateral side of the transwell while the lower potential of the battery connected to the apical side while taking care not to touch the transwell membranes with Caco-2 cell monolayer. The current applied to the cell was monitored by an ammeter and its value was adjusted to 50 μA using a potentiometer. Three different branches, each attached to an ammeter, potentiometer and transwell were connected in parallel across the battery to enable three different measurements at a time.
Transport experiments were carried out in triplicates and at least 3 transwells were used per trial for each group. Before the start of the experiment, the existing medium in the transwell was replaced with phenol red, FBS and P/S free DMEM in both the apical (200 μl) and basolateral side (600 μl) and the cells were incubated for 30 minutes. […] This was performed at 0.25, 0.5, 1, 2, 3 and 5 h. A 50 μA electrical current was applied to the cells during the first hour of the study for a period of 10 min, followed by 10 min recovery period and this was repeated another two times. At the end of 1 h (total 30 minutes iontophoresis), the transwell plates were kept inside an incubator at 37° C., 5% CO2 and only taken out to remove 100 μl aliquots from the basolateral side followed by replacement with same volume fresh medium at the aforementioned time periods. […] TEER was measured at every time point when aliquots were withdrawn from the transwells. Apparent permeability coefficient (Papp) was calculated using the equation (Brown, et al., “Dermal and transdermal drug delivery systems: current and future prospects,” Drug Deliv. 13(3):175-87 (2006)):
The transport enhancement ratio (ER) was calculated using the equation (Brown, et al., 2006): […]
as §1
as §2, with “the battery was connected to” for “the battery connected to”, “a potentiometer. […]” for “a potentiometer. Three different branches, each attached to an ammeter, potentiometer and transwell were connected in parallel across the battery to enable three different measurements at a time.”

[3] = control (no current) wells, 2 h
[4] = control (no current) wells, 3 h
[5] = 1 U/kg, subcutaneously injected, 1.5 h
[6] = 1 U/kg, subcutaneously injected, 3 h

For Human Insulin, the “drop in blood glucose levels” value (non-diabetic rats; 50 U/kg patch in intestine, 45-50 μA current, 3 h) was 63%, the hypoglycemia (non-diabetic rats; patches with iontophoresis, rats, up to 3 h) was “severely hypoglycemic” and the “difference in TEER between control and electric current group” value (Caco-2 cells [1]; at the end at 5 hours) was “no significant difference”. The “TEER drop of initial levels” value (Caco-2 cells [1]; electric current, 2 h) was 35%.
With “fluorescein isothiocyanate (FITC)-insulin [FITC-insulin]” the “uptake of FITC-insulin by cells (confocal images)” value (Caco-2 cells [2]) was “presence of higher FITC-insulin; also recorded: higher uptake”, the “uptake of FITC-insulin by cells (confocal images)” value (Caco-2 cells [2]; listed as FITCmsulin) was “higher uptake” and the “TEER reduction of initial levels” value (Caco-2 cells [1]; [3]) was “around 9%”. For the same substance, the “TEER, % of initial levels” value (Caco-2 cells [1]; [3]) was 91.2±1.1%, the “TEER reduction of initial levels” value (Caco-2 cells [1]; [4]) was ~4% and the “TEER, % of initial levels” value (Caco-2 cells [1]; [4]) was 95.6±6.5%. For the same substance, the TEER decrease (Caco-2 cells [1]; control group) was “no specific decrease”, the “TEER drop of initial levels” value (Caco-2 cells [1]; electric current, 2 h) was 35% and the “TEER, % of initial levels” value (Caco-2 cells [1]; electric current, 2 h) was 65.7±3.8%. For the same substance, the TEER decrease (Caco-2 cells [1]; electric current) was 10%, the “FITC-insulin transported across the cells” value (Caco-2 monolayers; control group (no current)) was “about 5.5 μg” and the “FITC-insulin transported across the cells” value (Caco-2 monolayers; electric current applied (50 μA)) was “approximately 14.1 μg”. For the same substance, the “insulin transport across the cells, electric current vs control” value (Caco-2 monolayers; from 2 hours onwards) was “significantly higher”, the “Papp of FITC-insulin across the cells” value (Caco-2 monolayers; without electricity) was 9.9 nm/s and the “Papp of FITC-insulin across the cells” value (Caco-2 monolayers; without electricity (Example 3)) was 9.9 nm/s.
“insulin solution: insulin solution injected intra-intestinally (50 U/kg) or subcutaneously (1 U/kg) as comparison” was tested, and the “blood glucose, % of initial levels” value (non-diabetic rats; [5]) was 57.9±4.1%, the “maximum drop in blood glucose levels” value (non-diabetic rats; [5]) was 42% and the “blood glucose drop after recovery” value (non-diabetic rats; [6]) was “about 17%”. For the same substance, the “blood glucose, % of initial levels” value (non-diabetic rats; [6]) was 83.3±2.6% and the “drop in blood glucose levels with time” value (non-diabetic rats; 50 U/kg, intra-intestinally injected) was “did not show any drop”.
